The source of these data is patent US11390604B2 (Hoffmann-La Roche Inc., priority 2019, dated 2022).

The subject of the experiment is Acinetobacter baumannii ATCC 17961. The experiment is described as follows: Antimicrobial susceptibility testing: 90% growth inhibitory concentration (IC90) determination. It counts as cell-based. The method, boiled down:
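Broth microdilution in Iso-Sensitest medium, twofold series (e.g. 50 to 0.097 μM final), ~5×10^5 CFU/ml inoculum, 35±2 °C. OD600 read every 20 min over 16 h. IC90 derived from growth inhibition during logarithmic phase.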

Setting [1] is: ATCC17961, Acinetobacter baumannii ATCC 17961, Iso-Sensitest broth, read-out: ATCC 17961 IC90.

Structures can show the parent of a compound that is named as a salt. Where two headings read alike, the source gives them in different places.

On to `Cn1c(-c2cn(C3CC3)nc2C(F)(F)F)cnc1C(=O)Nc1ccc(C(=O)N2CCN(C(=O)C3CCNCC3)CC2)c(Cl)c1` [Example 54, N-(3-Chloro-4-(4-(piperidine-4-carbonyl)piperazine-1-carbonyl)phenyl)-5-(1-cyclopropyl-3-(trifluoromethyl)-1H-pyrazol-4-yl)-1-methyl-1H-imidazole-2-carboxamide hydrochloride], for which the 90% effect concentration (IC90) (in general, the point of the concentration-response curve where the effect stands at 90%) under setting [1] was determined as 0.335 µM.

As for `Cn1cc(-c2cnc(C(=O)Nc3ccc(C(=O)N4CCN(C(=O)[C@@H]5C[C@@H](O)CN5)CC4)c(Cl)c3)n2C)c(C(F)(F)F)n1` [Example 55, N-[3-Chloro-4-[4-[(2S,4R)-4-hydroxypyrrolidine-2-carbonyl]piperazine-1-carbonyl]phenyl]-1-methyl-5-[1-methyl-3-(trifluoromethyl)pyrazol-4-yl]imidazole-2-carboxamide], the IC90 under setting [1] was 1.95 µM.

As for `Cn1cc(-c2cnc(C(=O)Nc3ccc(C(=O)N4CCN(C(=O)C5(O)CCNCC5)CC4)c(Cl)c3)n2C)c(C(F)(F)F)n1` [Example 56, N-[3-Chloro-4-[4-(4-hydroxypiperidine-4-carbonyl)piperazine-1-carbonyl]phenyl]-1-methyl-5-[1-methyl-3-(trifluoromethyl)pyrazol-4-yl]imidazole-2-carboxamide 2,2,2-trifluoroacetate], the concentration for an effect of 90% (IC90) under setting [1] was 1.51 µM.

With `CCc1cc(NC(=O)c2ncc(-c3cn(C)nc3C(F)(F)F)n2C)ccc1C(=O)NCCOCCN` [Example 57, N-(4-((2-(2-aminoethoxy)ethyl)carbamoyl)-3-ethylphenyl)-1-methyl-5-(1-methyl-3-(trifluoromethyl)-1H-pyrazol-4-yl)-1H-imidazole-2-carboxamide hydrochloride], the IC90 under setting [1] was 4.15 µM.

Regarding `CN(C)CC(=O)N1CCN(S(=O)(=O)c2ccc(NC(=O)c3ncc(-c4c[nH]nc4C(F)(F)F)n3C)cc2Cl)CC1` [Example 58, N-(3-Chloro-4-((4-(dimethylglycyl)piperazin-1-yl)sulfonyl)phenyl)-1-methyl-5-(3-(trifluoromethyl)-1H-pyrazol-4-yl)-1H-imidazole-2-carboxamide], the IC90 under setting [1] is 0.952 µM.

With `Cn1c(-c2c[nH]nc2C(F)(F)F)cnc1C(=O)Nc1ccc(S(=O)(=O)N2CCN(C(=O)[C@@H]3C[C@@H](O)CN3)CC2)c(Cl)c1` [Example 59, N-(3-Chloro-4-((4-((2S,4R)-4-hydroxypyrrolidine-2-carbonyl)piperazin-1-yl)sulfonyl)phenyl)-1-methyl-5-(3-(trifluoromethyl)-1H-pyrazol-4-yl)-1H-imidazole-2-carboxamide Hydrochloride], under setting [1], the IC90 came to 0.823 µM.

Take `Cn1c(-c2cn(CC#N)nc2C(F)(F)F)cnc1C(=O)Nc1ccc(C(=O)N2CCN(C(=O)C3(O)CCNCC3)CC2)c(Cl)c1` [Example 60, N-[3-Chloro-4-[4-(4-hydroxypiperidine-4-carbonyl)piperazine-1-carbonyl]phenyl]-5-[1-(cyanomethyl)-3-(trifluoromethyl)pyrazol-4-yl]-1-methyl-imidazole-2-carboxamide; Formic Acid]: the IC90 under setting [1] was found to be 0.468 µM.

For the compound `Cn1c(-c2cn(CC#N)nc2C(F)(F)F)cnc1C(=O)Nc1ccc(C(=O)N2CCN(C(=O)C3CCNCC3)CC2)c(Cl)c1` [Example 61, N-[3-Chloro-4-[4-(piperidine-4-carbonyl)piperazine-1-carbonyl]phenyl]-5-[1-(cyanomethyl)-3-(trifluoromethyl)pyrazol-4-yl]-1-methyl-imidazole-2-carboxamide Formate], the IC90 under setting [1] worked out at 0.506 µM.

On to `C[C@H](N)C(=O)N1CCN(C(=O)c2ccc(NC(=O)c3ncc(-c4cn(Cc5cccnc5)nc4C(F)(F)F)n3C)cc2Cl)CC1` [Example 62, N-[4-[4-[(2S)-2-Aminopropanoyl]piperazine-1-carbonyl]-3-chlorophenyl]-1-methyl-5-[1-(pyridin-3-ylmethyl)-3-(trifluoromethyl)pyrazol-4-yl]imidazole-2-carboxamide trihydrochloride], for which the IC90 under setting [1] is 0.834 µM.

In the case of `Cn1c(-c2cn(Cc3cccnc3)nc2C(F)(F)F)cnc1C(=O)Nc1ccc(C(=O)N2CCN(C(=O)[C@H]3C[C@H](N)C3)CC2)c(Cl)c1` [Example 63, rac-N-(4-(4-((1r,3r)-3-aminocyclobutane-1-carbonyl)piperazine-1-carbonyl)-3-chlorophenyl)-1-methyl-5-(1-(pyridin-3-ylmethyl)-3-(trifluoromethyl)-1H-pyrazol-4-yl)-1H-imidazole-2-carboxamide trihydrochloride], under setting [1], the IC90 is 0.517 µM.

Turning to `Cn1c(-c2cn(Cc3cccnc3)nc2C(F)(F)F)cnc1C(=O)Nc1ccc(C(=O)N2CCN(C(=O)[C@H]3CC[C@@H](N)C3)CC2)c(Cl)c1` [Example 64, N-(4-(4-((1S,3R)-3-aminocyclopentane-1-carbonyl)piperazine-1-carbonyl)-3-chlorophenyl)-1-methyl-5-(1-(pyridin-3-ylmethyl)-3-(trifluoromethyl)-1H-pyrazol-4-yl)-1H-imidazole-2-carboxamide trihydrochloride], the concentration for an effect of 90% (IC90) under setting [1] was found to be 4.67 µM.

Turning to `C=C=Cn1cc(-c2cnc(C(=O)Nc3ccc(C(=O)N4CCN(C(=O)C5CCNCC5)CC4)c(Cl)c3)n2C)c(C(F)(F)F)n1` [Example 65, N-[3-chloro-4-[4-(piperidine-4-carbonyl)piperazine-1-carbonyl]phenyl]-1-methyl-5-[1-propa-1,2-dienyl-3-(trifluoromethyl)pyrazol-4-yl]imidazole-2-carboxamide; Hydrochloride], the IC90 (Acinetobacter baumannii, ATCC17961, read-out: ATCC 17961 IC90, Acinetobacter baumannii ATCC 17961, Iso-Sensitest broth) is 0.26 µM.

Regarding `Cn1c(-c2c[nH]nc2-c2ccccc2)cnc1C(=O)Nc1ccc(C(=O)N2CCN(C(=O)C3CCNCC3)CC2)c(Cl)c1` [Example 66, N-[3-chloro-4-[4-(piperidine-4-carbonyl)piperazine-1-carbonyl]phenyl]-1-methyl-5-(3-phenyl-1H-pyrazol-4-yl)imidazole-2-carboxamide], the IC90 under setting [1] came out at 0.825 µM.

With `Cn1c(-c2cn(Cc3cccnc3)nc2C(F)(F)F)cnc1C(=O)Nc1ccc(C(=O)N2CCNCC2)c(Cl)c1` [Example 67, N-[3-chloro-4-(piperazine-1-carbonyl)phenyl]-1-methyl-5-[1-(pyridin-3-ylmethyl)-3-(trifluoromethyl)pyrazol-4-yl]imidazole-2-carboxamide;hydrochloride], the IC90 under setting [1] came out at 1.44 µM.

Take `Cn1c(-c2cn(CCF)nc2C(F)(F)F)cnc1C(=O)Nc1ccc(C(=O)N2CCNCC2)c(Cl)c1` [Example 68, N-[3-chloro-4-(piperazine-1-carbonyl)phenyl]-5-[1-(2-fluoroethyl)-3-(trifluoromethyl)pyrazol-4-yl]-1-methylimidazole-2-carboxamide;hydrochloride]: under setting [1], the IC90 was 0.489 µM.

Consider `Cn1c(-c2cn(CC#N)nc2C(F)(F)F)cnc1C(=O)Nc1ccc(C(=O)N2CCNCC2)c(Cl)c1` [Example 69, N-[3-chloro-4-(piperazine-1-carbonyl)phenyl]-5-[1-(cyanomethyl)-3-(trifluoromethyl)pyrazol-4-yl]-1-methylimidazole-2-carboxamide;2,2,2-trifluoroacetic acid], for which the IC90 under setting [1] was 0.309 µM.

Turning to `Cn1c(-c2cn(Cc3cccnc3)nc2C(F)(F)F)cnc1C(=O)Nc1ccc(C(=O)N2CCN(C(=O)[C@H]3CCNC3)CC2)c(Cl)c1` [Example 70, N-[3-chloro-4-[4-[(3S)-pyrrolidine-3-carbonyl]piperazine-1-carbonyl]phenyl]-1-methyl-5-[1-(pyridin-3-ylmethyl)-3-(trifluoromethyl)pyrazol-4-yl]imidazole-2-carboxamide], under setting [1], the concentration for an effect of 90% (IC90) was 0.497 µM.
